Earlier results in US20220331342A1, “TREATMENT OF TRAUMATIC ENCEPHALOPATHY BY FIBROBLASTS AND THERAPEUTIC ADJUVANTS” (FIGENE, LLC, priority 2019, published 2022).

What was measured:
[1] = tested on: mixed spinal cord (SC) cultures; settings: excitotoxins
SOD1 mutant mice = settings: single therapy

Structure (SMILES)	neuronal survival on treatment with MAPK inhibitors [1]	further results
CN(C)c1ccc(O)c2c1C[C@H]1C[C@H]3[C@H](N(C)C)C(O)=C(C(N)=O)C(=O)[C@@]3(O)C(O)=C1C2=O [Minocycline, minocycline]		first-pass metabolism when absorbed from the human gastrointestinal tract: substantial first-pass metabolism
COc1cccc(-c2cc(=O)c3ccccc3o2)c1N [PD98059]	not	
Nc1nc2ccc(OC(F)(F)F)cc2s1 [Riluzole, riluzole]		onset of disease (SOD1 mutant mice): without affecting
C[S+]([O-])c1ccc(-c2nc(-c3ccncc3)c(-c3ccc(F)cc3)[nH]2)cc1 (stereo not shown) [SB203580]	increased neuronal survival	
